According to paper PMC7467243, “Response to and recovery from treatment in human liver-mimetic clinostat spheroids: a model for assessing repeated-dose drug toxicity” (Toxicology Research, 2020):

Tests used:
[1] = cited from earlier work
[2] = cited from earlier work; for Biological half-life (h): in vivo
HepG2–C3A spheroids = test system: HepG2–C3A spheroids
Description: Three hundred 21-day old spheroids (corresponding to ~25 million cells or 3.5 mg protein) were gently pipetted (using a cut-tip) into each 10 ml bioreactor before treatment to provide ample material for analysis. To initiate drug treatment, the bioreactor rotation was stopped for 30 s to allow the spheroids to settle to the bottom of the bioreactor. […] Each narrow range experiment was carried out in duplicate and ATP was measured in technical triplicates for each sample. […] Data were normalized to the vehicle-treated control. Error bars in the figures show standard deviation.
Cell viability was measured based on their ability to produce ATP [37]. […] The cells were then lysed with 100 μl of lysis buffer (CellTiter-Glo luminescent cell viability assay, Promega, Fitchburg, WI, Cat. no. G7571) and shaken in the dark for 20 min. Before the luminescence was measured in a FluoStar OPTIMA (BMG Labtech, Ortenberg, Germany) using the following parameters: one kinetic window, 10 measurement cycles with 0.3 s of measurement interval time, 2-s delay per measurement, additional 0.5-s delay per position change (repeated twice for each measured plate). Replicates were performed as described under the ‘Drug treatment’ Section. The data were normalized with reference to a standard curve for ATP and to the untreated control.

[3] = design: method as in PMID 22407198, PMID 12889529; conditions: therapeutic dose 4 g/day; cited from earlier work
[4] = cited from earlier work; remark: listed apart in the source
HepG2/C3A spheroids = test system: HepG2/C3A spheroids; design: method as in earlier work; conditions: cited from earlier work

Question: With `O=C(O)Cc1ccccc1Nc1c(Cl)cccc1Cl` [Diclofenac] as the compound, how does the “effectiveness as an anti-inflammatory agent compared with other non-steroidal anti-inflammatory drugs” value [1] read?
Answer: Its value is 3-1000 ×.

Question: What about the “Biological half-life (h)” value [2] of the same compound?
Answer: The value was 1–2 h.

Question: For `CN(C)C(=N)N=C(N)N` [Metformin], which “reduction in ATP production” value (HepG2–C3A spheroids; 5 mg/mg (highest dose), glucose medium) is on record?
Answer: The value was 70%.

Question: With `CC(=O)Nc1ccc(O)cc1` [Paracetamol] as the compound, how does the “Biological half-life (h)” value [2] read?
Answer: Its value is 2–4 h.

Question: What about the chronically lethal dose (HepG2–C3A spheroids; four treatments at 48-h intervals killed the spheroids, relative to 20 mg paracetamol per mg protein) of the same compound?
Answer: The chronically lethal dose was “Half of this dose”.

Question: What about the acutely lethal dose (HepG2–C3A spheroids; glucose medium) of the same compound?
Answer: The acutely lethal dose was 20 mg paracetamol per mg protein.

Question: What about the blood concentration [3] of the same compound?
Answer: The blood concentration was 10000 to 25000 ng/mL.

Question: What about the “Toxic dose, μg/ml in blood” value [4] of the same compound?
Answer: Its value is 100 to 150 µg/mL.

Question: What does the source list for `[H]/N=C(/N)N/C(=N/[H])NCCc1ccccc1` [Phenformin]?
Answer: half-life [2]: 7 h; Biological half-life (h) [2]: 4–13 h

Question: Which results are given for `CCCC(CCC)C(=O)O` [VPA, valproic acid]?
Answer: Biological half-life (h) [2]: 10–20 h; Toxic dose, μg/ml in blood [4]: 40 to 100 µg/mL; acute toxicity threshold (HepG2/C3A spheroids): 20 mg VPA per mg protein; chronic toxicity threshold (HepG2/C3A spheroids): 4 mg VPA per mg protein
